Results: patent US20250163104A1, “MACROCYCLIC IMMUNOMODULATORS” (priority 2021, published 2025)
Where a SMILES comes first, the peptide text is derived from it. Bridges are numbered along the chain shown (N, C = ends). [ ]: non-standard residue; d: D form. The star is where a group is joined. Phe(4-COOH) = N[C@@H](Cc1ccc(C(=O)O)cc1)C(=O)O; Bip = N[C@@H](Cc1ccc(-c2ccccc2)cc1)C(=O)O; Ala(2-furyl) = N[C@@H](Cc1ccco1)C(=O)O; Phe(3-Me) = Cc1cccc(C[C@H](N)C(=O)O)c1; Val(3-OH) = CC(C)(O)[C@H](N)C(=O)O; 4Pal = N[C@@H](Cc1ccncc1)C(=O)O; Cha = N[C@@H](CC1CCCCC1)C(=O)O; Carboxymethyl = O=C(O)C*; Orn = NCCC[C@H](N)C(=O)O; Dab = NCC[C@H](N)C(=O)O

Each compound was assayed against T1, human PD-1 / PD-L1-Ig binding on Jurkat cell line over-expressing human PD-1 (Jurkat-PD-1) (Homo sapiens, UniProt Q15116) (assay: Jurkat-PD-1 Cell Binding High-Content Screening Assay (CBA)). Details: Jurkat-PD-1 cells, PE-labeled PD-L1-Ig 20 nM final; read-out: Jurkat HPD1_PDL1 IC50.
T1 construct: expressed in transfected cells; host or cells: Jurkat
Type: cell-based
Method in brief: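 Jurkat-hPD-1 cells in DMEM with 10% fetal calf serum receive test compound and are held at 37° C for 2 h. PE-labeled PD-L1-Ig is added at 20 nM final and left for 1 hour. Cells are then fixed and Hoechst-stained, and binding is measured by imaging.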

T1 sequence (Q15116 25-288): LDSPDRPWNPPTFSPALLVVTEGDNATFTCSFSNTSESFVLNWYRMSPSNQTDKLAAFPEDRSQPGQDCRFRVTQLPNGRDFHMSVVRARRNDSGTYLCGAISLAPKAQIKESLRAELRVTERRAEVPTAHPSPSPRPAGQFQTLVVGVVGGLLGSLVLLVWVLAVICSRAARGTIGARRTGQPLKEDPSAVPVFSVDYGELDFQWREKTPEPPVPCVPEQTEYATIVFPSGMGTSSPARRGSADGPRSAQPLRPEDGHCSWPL

| Structure (SMILES) | IC50 [nM] |
| --- | --- |
| Cc1cccc(C[C@@H]2NC(=O)[C@H](CC(=O)O)NC(=O)[C@H](Cc3ccc(OCC(=O)O)cc3)NC(=O)[C@H](Cc3ccncc3)NC(=O)CSC[C@@H](C(=O)N[C@@H](CCN)C(N)=O)NC(=O)[C@H](CO)NC(=O)[C@H](C(C)(C)O)NC(=O)[C@H](CC3CCCCC3)NC(=O)[C@H](CCN)NC(=O)[C@@H](CC(C)C)NC(=O)[C@H](CCC(N)=O)NC(=O)[C@H](Cc3ccc(OCC(=O)O)cc3)NC(=O)[C@H](Cc3ccc(-c4ccccc4)cc3)NC(=O)[C@H](Cc3ccc(OCC(=O)O)cc3)NC2=O)c1 [Compound 2642] ({CH2CO}-[4Pal]Y(Carboxymethyl)D[Phe(3-Me)]Y(Carboxymethyl)[Bip]Y(Carboxymethyl)Q[dL][Dab][Cha][Val(3-OH)]SC[Dab]-NH2; thioether N-14) | 3.5 |
| Cc1cccc(C[C@@H]2NC(=O)[C@H](CC(=O)O)NC(=O)[C@H](Cc3ccc(OCC(=O)O)cc3)NC(=O)[C@H](Cc3ccncc3)NC(=O)CSC[C@@H](C(=O)N[C@@H](CCN)C(N)=O)NC(=O)[C@H](CO)NC(=O)[C@H](C(C)(C)O)NC(=O)[C@H](CC3CCCCC3)NC(=O)[C@H](CCN)NC(=O)[C@@H](CC(C)C)NC(=O)[C@H](CCC(N)=O)NC(=O)[C@H](Cc3ccc(C(=O)O)cc3)NC(=O)[C@H](Cc3ccc(-c4ccccc4)cc3)NC(=O)[C@H](Cc3ccc(C(=O)O)cc3)NC2=O)c1 [Compound 2643] ({CH2CO}-[4Pal]Y(Carboxymethyl)D[Phe(3-Me)][Phe(4-COOH)][Bip][Phe(4-COOH)]Q[dL][Dab][Cha][Val(3-OH)]SC[Dab]-NH2; thioether N-14) | 7.3 |
| Cc1cccc(C[C@@H]2NC(=O)[C@H](CC(=O)O)NC(=O)[C@H](Cc3ccc(OCC(=O)O)cc3)NC(=O)[C@H](CCN)NC(=O)CSC[C@@H](C(=O)N[C@@H](CCN)C(N)=O)NC(=O)[C@H](Cc3cnc[nH]3)NC(=O)[C@H](C(C)C)NC(=O)[C@H](CC3CCCCC3)NC(=O)[C@H](CCN)NC(=O)[C@@H](CC(C)C)NC(=O)[C@H](CCCN)NC(=O)[C@H](Cc3ccc(OCC(=O)O)cc3)NC(=O)[C@H](Cc3ccc(-c4ccccc4)cc3)NC(=O)[C@H](C(C)C)NC2=O)c1 [Compound 2644] ({CH2CO}-[Dab]Y(Carboxymethyl)D[Phe(3-Me)]V[Bip]Y(Carboxymethyl)[Orn][dL][Dab][Cha]VHC[Dab]-NH2; thioether N-14) | 13.6 |
| Cc1cccc(C[C@@H]2NC(=O)[C@H](CC(=O)O)NC(=O)[C@H](Cc3ccc(OCC(=O)O)cc3)NC(=O)[C@H](Cc3ccncc3)NC(=O)CSC[C@@H](C(=O)N[C@@H](CCN)C(N)=O)NC(=O)[C@H](CO)NC(=O)[C@H](C(C)(C)O)NC(=O)[C@H](CC3CCCCC3)NC(=O)[C@H](Cc3cnc[nH]3)NC(=O)[C@@H](CC(C)C)NC(=O)[C@H](CCCN)NC(=O)[C@H](Cc3ccc(OCC(=O)O)cc3)NC(=O)[C@H](Cc3ccc(-c4ccccc4)cc3)NC(=O)[C@H](Cc3ccc(OCC(=O)O)cc3)NC2=O)c1 [Compound 2645] ({CH2CO}-[4Pal]Y(Carboxymethyl)D[Phe(3-Me)]Y(Carboxymethyl)[Bip]Y(Carboxymethyl)[Orn][dL]H[Cha][Val(3-OH)]SC[Dab]-NH2; thioether N-14) | 11.7 |
| Cc1cccc(C[C@@H]2NC(=O)[C@H](CC(=O)O)NC(=O)[C@H](Cc3ccc(OCC(=O)O)cc3)NC(=O)[C@H](Cc3ccco3)NC(=O)CSC[C@@H](C(=O)N[C@@H](CCN)C(N)=O)NC(=O)[C@H](Cc3cnc[nH]3)NC(=O)[C@H](C(C)(C)O)NC(=O)[C@H](CC3CCCCC3)NC(=O)[C@H](CCN)NC(=O)[C@@H](CC(C)C)NC(=O)[C@H](CCCN)NC(=O)[C@H](Cc3ccc(OCC(=O)O)cc3)NC(=O)[C@H](Cc3ccc(-c4ccccc4)cc3)NC(=O)[C@H](Cc3ccc(OCC(=O)O)cc3)NC2=O)c1 [Compound 2646] ({CH2CO}-[Ala(2-furyl)]Y(Carboxymethyl)D[Phe(3-Me)]Y(Carboxymethyl)[Bip]Y(Carboxymethyl)[Orn][dL][Dab][Cha][Val(3-OH)]HC[Dab]-NH2; thioether N-14) | 8.3 |
